No end group written: not given here.
Tests used:
[1] = system: HALLMARK_MTORC1_SIGNALING; assay: GSEA MTORC1 signaling, COLO320DM; assay type: cell-based, human; conditions: si.CircPVT1 vs si.Ctrl, n=3, Padj = 0.0188
Description: RNAseq processing: Raw reads were mapped to the hg19 human reference genome using the STAR aligner (v.2.5.0a) 66. PCR-duplicated reads and low mapping quality reads (MQ score below 20) were removed using Picard tools and SAMtools, respectively. Aligned reads were counted using htseq-count (v.0.6.1p1) 69 and normalized according to size factors method from DESeq2 70. We used fold change ≥2 and FDR <0.05 as the determination of differentially expressed genes (DEG). Statistical analysis and plots were performed inside R environment version 3.1.0. upload files) […]
bioRxiv preprint doi: https://doi.org/10.1101/2025.02.17.638454; this version posted February 22, 2025. The copyright holder for this preprint (which was not certified by peer review) is the author/funder, who has granted bioRxiv a license to display the preprint in perpetuity. It is made available under a CC-BY 4.0 International license . […]
Supplementary Figure 11: Gene set enrichment analysis scores (GSEA) analysis of genes involved in MTORC 1 signaling in COLO320DM (A) and SK-PN-DW (B) treated with si.CircPVT 1. si.Ctrl was used as control. n=3, for each treatment condition .
(also on this page, place not known: SK-PN-DWB MTORC1 si.CircPVT1. condition. Enrichment Score Enrichment Score .CC-BY licenseavailable preprintthis https://doi.org/10.1101/2025.02.17.638454doi:) […]

MYC targets genes = assay: GSEA MYC targets, D458; assay type: cell-based, human; conditions: D458, si.CircPVT1 vs si.Ctrl, n=3
Description: RNAseq processing: Raw reads were mapped to the hg19 human reference genome using the STAR aligner (v.2.5.0a) 66. PCR-duplicated reads and low mapping quality reads (MQ score below 20) were removed using Picard tools and SAMtools, respectively. Aligned reads were counted using htseq-count (v.0.6.1p1) 69 and normalized according to size factors method from DESeq2 70. We used fold change ≥2 and FDR <0.05 as the determination of differentially expressed genes (DEG). Statistical analysis and plots were performed inside R environment version 3.1.0. upload files)

KRAS dimerization = assay: Acceptor photobleaching FRET of CFP-KRAS/YFP-KRAS in D458; assay type: cell-based; conditions: shRNA1.PVT1ts D458 with doxycycline-induced HNB; n=10, one-way ANOVA
Experimental: pcDNA3.1 CFP-KRAS (#112717) and pcDNA3.1 YFP-KRAS (#112718) were purchased from Addgene. The plasmids were co-transfected into D458 cells in a 35 mm cell culture dish with glass bottom. The cells were imaged live 48 hours after transfection on the Nikon Super Resolution Confocal Microscope. CFP was excited using 405–445nm laser and YFP was excited using the 514 nm laser. YFP was photobleached at 80% power for 1 minute and the CFP and YFP were imaged after photobleaching using the respective laser and filters. The images were analyzed in Fiji, ImageJ. […]
bioRxiv preprint doi: https://doi.org/10.1101/2025.02.17.638454; this version posted February 22, 2025. The copyright holder for this preprint (which was not certified by peer review) is the author/funder, who has granted bioRxiv a license to display the preprint in perpetuity. It is made available under a CC-BY 4.0 International license .
Supplementary Figure 22: HNB regulates KRAS dimerization (A) Schematic representation of KRAS dimerization using acceptor photobleaching FRET assay. (B) Schematic representation of KRAS dimerization on knocking down HNB using shRNA1-PVT1ts. (C) Representative images showing signals for CFP-KRAS and YFP-KRAS. […]
Images were taken at 60X oil; the scale bar is 10µm. […] (p-value calculated by one-way ANOVA, n=10). […] (p-value calculated by one-way ANOVA, n=10). […]

Substance | NES, HALLMARK_MTORC1_SIGNALING [1] | MYC targets (GSEA) (MYC targets genes) | CFP (donor) fluorescence after photobleaching of YFP (KRAS dimerization)
si.CircPVT1: siRNA targeting the junction sequence of CircPVT1, 5’-UGGGCUUGAGGCCUGAUCUUU-3’ (other strand not given here) | -1.506 | depletion of MYC targets | 
MKTQLGAVKGFLHV [HNB] |  |  | mitigated the augmented CFP fluorescence

From paper doi:10.1101/2025.02.17.638454, “Synergistic RAS-MAPK and AKT Activation in MYC-Driven Tumors via Adjacent PVT1 Rearrangements” (bioRxiv, 2025)
